# Laboratory results as given in PMC10586506 (Drug Metabolism and Disposition, 2023).
# Counter-ions that a name gives are not always drawn. Like-named read-outs stand apart in the source and are kept apart here.
# Experiments:
# human OCT3 = target: T1, human OCT3 (Homo sapiens, UniProt O75751); experiment: OCT3 inhibition in HEK293-LV cells overexpressing the transporter; type: cell-based; conditions: for inhibition at 10 µM / inhibition at 100 µM: read-out: OCT3 (%) percent inhibition of transporter activity
# T1 sequence (O75751 1-556): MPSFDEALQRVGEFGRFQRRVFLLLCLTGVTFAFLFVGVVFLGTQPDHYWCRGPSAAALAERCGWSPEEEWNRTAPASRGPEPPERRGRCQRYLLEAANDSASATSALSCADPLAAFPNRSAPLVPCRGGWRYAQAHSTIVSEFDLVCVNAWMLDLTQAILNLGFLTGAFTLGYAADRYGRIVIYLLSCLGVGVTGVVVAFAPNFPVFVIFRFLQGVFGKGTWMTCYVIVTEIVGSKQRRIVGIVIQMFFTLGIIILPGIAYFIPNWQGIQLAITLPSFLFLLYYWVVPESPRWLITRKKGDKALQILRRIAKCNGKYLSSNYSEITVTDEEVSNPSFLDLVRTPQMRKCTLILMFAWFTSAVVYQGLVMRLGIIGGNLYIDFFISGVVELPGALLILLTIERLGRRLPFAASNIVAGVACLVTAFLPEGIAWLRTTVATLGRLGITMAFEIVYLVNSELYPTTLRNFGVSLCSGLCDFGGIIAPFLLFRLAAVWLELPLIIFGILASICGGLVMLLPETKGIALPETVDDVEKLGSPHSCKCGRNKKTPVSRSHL
# human PMAT = target: T2, human PMAT (Homo sapiens, UniProt Q7RTT9); experiment: PMAT inhibition in HEK293-LV cells overexpressing the transporter; type: cell-based; conditions: for inhibition at 10 µM / inhibition at 100 µM: read-out: PMAT (%) percent inhibition of transporter activity
# T2 sequence (Q7RTT9 1-530): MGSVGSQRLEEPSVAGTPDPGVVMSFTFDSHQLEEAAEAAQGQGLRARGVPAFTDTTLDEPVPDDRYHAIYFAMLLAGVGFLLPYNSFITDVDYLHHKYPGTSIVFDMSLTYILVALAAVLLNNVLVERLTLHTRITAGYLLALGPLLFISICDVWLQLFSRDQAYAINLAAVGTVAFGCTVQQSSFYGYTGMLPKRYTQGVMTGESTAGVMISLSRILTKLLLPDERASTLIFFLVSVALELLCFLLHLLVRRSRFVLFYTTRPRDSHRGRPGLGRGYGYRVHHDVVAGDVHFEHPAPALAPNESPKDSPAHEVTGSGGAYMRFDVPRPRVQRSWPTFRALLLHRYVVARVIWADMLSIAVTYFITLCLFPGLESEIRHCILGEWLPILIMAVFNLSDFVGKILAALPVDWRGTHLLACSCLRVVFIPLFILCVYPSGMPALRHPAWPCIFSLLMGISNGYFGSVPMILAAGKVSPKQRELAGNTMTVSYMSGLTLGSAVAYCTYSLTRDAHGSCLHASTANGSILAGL
# human THTR2 = target: T3, human THTR2 (Homo sapiens, UniProt Q9BZV2); experiment: THTR2 inhibition in HEK293-LV cells overexpressing the transporter; type: cell-based; conditions: for inhibition at 10 µM / inhibition at 100 µM: read-out: THTR2 (%) percent inhibition of transporter activity
# T3 sequence (Q9BZV2 1-496): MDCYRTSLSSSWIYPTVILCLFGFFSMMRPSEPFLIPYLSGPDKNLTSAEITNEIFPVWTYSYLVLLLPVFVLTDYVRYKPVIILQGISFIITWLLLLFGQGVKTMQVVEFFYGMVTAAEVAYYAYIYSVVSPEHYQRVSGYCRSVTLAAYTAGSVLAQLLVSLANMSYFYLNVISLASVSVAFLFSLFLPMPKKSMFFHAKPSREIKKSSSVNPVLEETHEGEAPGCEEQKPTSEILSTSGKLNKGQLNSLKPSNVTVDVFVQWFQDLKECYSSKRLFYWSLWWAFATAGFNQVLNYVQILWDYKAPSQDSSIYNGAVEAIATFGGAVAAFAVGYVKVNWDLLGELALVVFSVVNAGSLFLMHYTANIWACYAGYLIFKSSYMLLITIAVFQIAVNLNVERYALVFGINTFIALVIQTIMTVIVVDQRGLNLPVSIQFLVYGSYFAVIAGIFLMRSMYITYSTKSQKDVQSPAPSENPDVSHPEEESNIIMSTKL
# human OCT1 = conditions: ref Nguyen et al., 2021, cited from earlier work; for IC50: read-out: IC50 OCT1, extract normalized to berberine
# [1] = humans, single 2.7 g dose of goldenseal; ref Gupta et al., 2015; cited from earlier work
# [2] = Oral metformin/oral inhibitor pharmacokinetic study in mice; conditions: for decrease in geometric mean metformin Cmax relative to vehicle: oral metformin 10 mg/kg with oral test article; for effect on metformin pharmacokinetics: oral metformin with oral test article
# [3] = humans; ref Nguyen et al., 2021; cited from earlier work
# Caco-2 cell monolayers = conditions: cited from earlier work
Structure (SMILES),inhibition at 10 µM (human OCT3) [%],inhibition at 100 µM (human OCT3) [%],inhibition at 10 µM (human PMAT) [%],inhibition at 100 µM (human PMAT) [%],inhibition at 10 µM (human THTR2) [%],inhibition at 100 µM (human THTR2) [%],IC50 (human OCT1) [µM],inhibition of OCT1 (in words) (human OCT1),Cmax [1] [nM],decrease in geometric mean metformin Cmax relative to vehicle [2],effect on metformin pharmacokinetics [2],inhibition of OCT3 (in words) (human OCT3),inhibition of PMAT (in words) (human PMAT),inhibition of THTR2 (in words) (human THTR2),other results
"COc1ccc2c(c1OC)C(=O)O[C@@H]2[C@H]1c2cc3c(cc2CCN1C)OCO3 [(–)-β-hydrastine, (–)-β-Hydrastine]",3,24,-9,37,7,-4,6.6,only inhibited OCT1,1.75,no effect,no effect,,,,
"COc1ccc2cc3[n+](cc2c1OC)CCc1cc2c(cc1-3)OCO2 [Berberine, Berberine chloride hydrate]",55,95,8,71,-2,43,19,inhibited,470,no effect,no effect,inhibited,inhibited,inhibited,"IC50 of berberine alone relative to goldenseal extract (human OCT3; across OCT3, PMAT and THTR2, fold higher): 2.8- to 7.4 fold; estimated intestinal luminal inhibitor concentration [3]: 354 µM"
"CN1CCc2cc3c(cc2C1O)OCO3 (stereo not drawn) [Hydrastinine, Hydrastinine chloride monohydrate]",-5,-3,11,43,2,19,,did not inhibit,,,,did not inhibit,did not inhibit,did not inhibit,
"CN(C)C(=N)N=C(N)N [metformin, Metformin hydrochloride salt]",,,,,,,,,,,,,,,"percent contribution of OCT1 to metformin uptake (Caco-2 cell monolayers; ref Han et al., 2015): 25%; percent contribution of PMAT to metformin uptake (Caco-2 cell monolayers; ref Han et al., 2015): 20%; percent contribution of SERT to metformin uptake (Caco-2 cell monolayers; ref Han et al., 2015): 20%; percent contribution of choline transporter to metformin uptake (Caco-2 cell monolayers; ref Han et al., 2015): 15%; percent contribution of passive diffusion to metformin uptake (Caco-2 cell monolayers; ref Han et al., 2015): 20%; percent contribution of OCT3 to metformin uptake (Caco-2 cell monolayers; ref Shirasaka et al., 2022): 10%; percent contribution of PMAT to metformin uptake (Caco-2 cell monolayers; ref Shirasaka et al., 2022): 10%; percent contribution of SERT to metformin uptake (Caco-2 cell monolayers; ref Shirasaka et al., 2022): 2%; percent contribution of THTR2 to metformin uptake (Caco-2 cell monolayers; ref Shirasaka et al., 2022): 22%; percent contribution of other (unidentified) transporters to metformin uptake (Caco-2 cell monolayers; ref Shirasaka et al., 2022): 1%; percent contribution of passive diffusion to metformin uptake (Caco-2 cell monolayers; ref Shirasaka et al., 2022): 55%"
